# Assay results: ChEMBL document CHEMBL4330077, “1,1-Diheterocyclic Ethylenes Derived from Quinaldine and Carbazole as New Tubulin-Polymerization Inhibitors: Synthesis, Metabolism, and Biological Evaluation” (J Med Chem, 2019)
# pIC50: −log10 of the molar value. Active and inactive are the calls of the source. No cut-off for these calls is given here.
# Columns and labels:
# HCT-116 [1] = test: cells; details: Homo sapiens, HCT-116, 72 h
# Description: Antiproliferative activity against human HCT116 cells after 72 hrs by MTS assay
# [2] = Inhibition of sheep brain tubulin polymerization by DAPI-fluorescence based fluorimetry; set-up: species or system Ovis aries
# [3] = Aqueous solubility of the compound in phosphate buffer at pH 7.4 after 4 hrs by HPLC-UV analysis; format: physicochemical
# [4] = Lipophilicity, log P of the compound after 24 hrs by HPLC analysis; format: physicochemical
# K562 = test: cells; details: Homo sapiens, K562, 72 h
# Cytochrome P450 [5] = test: Drug metabolism in human liver microsomes assessed as cytochrome P450-mediated N-demethylated metabolite formation at 100 uM after 6 hrs in presence of NADPH generating system by HPLC-UV-MS analysis; format: ADME
# A549 [6] = test: cells; details: Homo sapiens, A549, 72 h
# Description: Antiproliferative activity against human A549 cells after 72 hrs by MTS assay
# K-562R [7] = test: Antiproliferative activity against human K562R cells after 72 hrs by MTS assay; format: functional, cell-based
# [8] = Drug metabolism in rat liver microsomes assessed as cytochrome P450-mediated hydroxylated metabolite formation at 100 uM after 6 hrs in presence of NADPH generating system by HPLC-UV-MS analysis; format: ADME
# HUVEC [9] = test: cells; details: Homo sapiens, 72 h
# Description: Antiproliferative activity against HUVEC after 72 hrs by MTS assay
# U-87 MG = test: Antiproliferative activity against human U87MG cells after 72 hrs by MTS assay; format: functional, cell-based, U-87MG ATCC
# Cytochrome P450 [10] = test: Drug metabolism in human liver microsomes assessed as cytochrome P450-mediated hydroxylated metabolite formation at 100 uM after 6 hrs in presence of NADPH generating system by HPLC-UV-MS analysis; format: ADME
# [11] = Drug metabolism in rat liver microsomes assessed as cytochrome P450-mediated N-demethylated metabolite formation at 100 uM after 6 hrs in presence of NADPH generating system by HPLC-UV-MS analysis; format: ADME
# HT-29 = test: cells; details: Homo sapiens, HT-29, 72 h
# Description: Antiproliferative activity against human HT-29 cells after 72 hrs by MTS assay
# [12] = Drug metabolism in rat liver microsomes assessed as cytochrome P450-mediated 2-methoxy-5-(1-(3,4,5-trimethoxyphenyl)vinyl)cyclohexa-2,5-diene-1,4-dione metabolite formation at 100 uM after 6 hrs in presence of NADPH generating system by HPLC-UV-MS analysis; format: ADME
# Cytochrome P450 [13] = test: Drug metabolism in human liver microsomes assessed as cytochrome P450-mediated 4-(1-(3-hydroxy-4-methoxyphenyl)vinyl)-2,6-dimethoxyphenol metabolite formation at 100 uM after 6 hrs in presence of NADPH generating system by HPLC-UV-MS analysis; format: ADME
# Cytochrome P450 [14] = test: Drug metabolism in human liver microsomes assessed as cytochrome P450-mediated 2-methoxy-5-(1-(3,4,5-trimethoxyphenyl)vinyl)cyclohexa-2,5-diene-1,4-dione metabolite formation at 100 uM after 6 hrs in presence of NADPH generating system by HPLC-UV-MS analysis; format: ADME
# [15] = Drug metabolism in rat liver microsomes assessed as cytochrome P450-mediated 4-(1-(3-hydroxy-4-methoxyphenyl)vinyl)-2,6-dimethoxyphenol metabolite formation at 100 uM after 6 hrs in presence of NADPH generating system by HPLC-UV-MS analysis; format: ADME
# Cytochrome P450 [16] = test: Drug level in human liver microsomes treated with isocombratestatin-A4 assessed as CYP450-mediated compound metabolism at 100 uM after 6 hrs in presence of NADPH generating system by HPLC-UV-MS analysis; format: ADME
# [17] = Drug level in rat liver microsomes treated with isocombratestatin-A4 assessed as CYP450-mediated compound metabolism at 100 uM after 6 hrs in presence of NADPH generating system by HPLC-UV-MS analysis; format: ADME
# [18] = Drug metabolism in rat liver microsomes assessed as cytochrome P450-mediated 3-(1-(2-methylquinolin-4-yl)vinyl)-9H-carbazole metabolite formation at 100 uM after 6 hrs in presence of NADPH generating system by HPLC-UV-MS analysis; format: ADME
# Cytochrome P450 [19] = test: Drug metabolism in human liver microsomes assessed as cytochrome P450-mediated 3-(1-(2-methylquinolin-4-yl)vinyl)-9H-carbazole metabolite formation at 100 uM after 6 hrs in presence of NADPH generating system by HPLC-UV-MS analysis; format: ADME
# [20] = Metabolic stability in rat liver microsomes assessed as parent compound at 100 uM up to […] in presence of NADPH generating system by HPLC-MS/MS analysis; format: ADME, Microsome
# K-562R [21] = test: Potency index, ratio of CA-4 IC50 to compound IC50 for antiproliferative activity against human K562R cells; format: functional
# HUVEC [22] = test: Antiangiogenic activity in HUVEC assessed as inhibition of tube formation after 2 to 6 hrs by matrigel assay; format: functional, cell-based; details: Homo sapiens
# HUVEC [23] = test: Antiangiogenic activity in HUVEC assessed as disorganization of the vasculature network at 10 nM after 6 hrs by matrigel assay; format: functional, cell-based; details: Homo sapiens
# [24] = Metabolic stability in human liver microsomes assessed as parent compound at 100 uM up to […] in presence of NADPH generating system by HPLC-MS/MS analysis; format: ADME, Microsome
# K-562R [25] = test: Potency index, ratio of iso-CA-4 IC50 to compound IC50 for antiproliferative activity against human K562R cells; format: functional
# HUVEC [26] = test: Antiangiogenic activity in HUVEC assessed as disorganization of the vasculature network at 50 nM after 2 hrs by matrigel assay; format: functional, cell-based; details: Homo sapiens
# HCT-116 [27] = test: Induction of cell cycle arrest in human HCT116 cells assessed as accumulation at G2M phase after 24 hrs by propidium iodide staining based flow cytometry; format: functional
# HCT-116 [28] = test: Induction of cell cycle arrest in human HCT116 cells assessed as accumulation at G2M phase at 10 nM after 24 hrs by propidium iodide staining based flow cytometry relative to control; format: functional
# A549 [29] = test: Potency index, ratio of CA-4 IC50 to compound IC50 for antiproliferative activity against human A549 cells; format: functional
# Cytochrome P450 [30] = test: Drug metabolism in human liver microsomes assessed as cytochrome P450-mediated O-demethylated metabolite formation at 100 uM after 6 hrs in presence of NADPH generating system by HPLC-UV-MS analysis; format: ADME
# [31] = Drug metabolism in rat liver microsomes assessed as cytochrome P450-mediated O-demethylated metabolite formation at 100 uM after 6 hrs in presence of NADPH generating system by HPLC-UV-MS analysis; format: ADME
# Cytochrome P450 [32] = test: Drug metabolism in human liver microsomes assessed as cytochrome P450-mediated 6-(1-(3-hydroxy-4-methoxyphenyl)vinyl)-2,3,4-trimethoxyphenol metabolite formation at 100 uM after 6 hrs in presence of NADPH generating system by HPLC-UV-MS analysis; format: ADME
# [33] = Drug metabolism in rat liver microsomes assessed as cytochrome P450-mediated 6-(1-(3-hydroxy-4-methoxyphenyl)vinyl)-2,3,4-trimethoxyphenol metabolite formation at 100 uM after 6 hrs in presence of NADPH generating system by HPLC-UV-MS analysis; format: ADME
# [34] = Drug level in rat liver microsomes treated with 9-Methyl-3-(1-(2-methylquinolin-4-yl)vinyl)-9H-carbazole assessed as CYP450-mediated compound metabolism at 100 uM after 6 hrs in presence of NADPH generating system by HPLC-UV-MS analysis; format: ADME
# Cytochrome P450 [35] = test: Drug level in human liver microsomes treated with 9-Methyl-3-(1-(2-methylquinolin-4-yl)vinyl)-9H-carbazole assessed as CYP450-mediated compound metabolism at 100 uM after 6 hrs in presence of NADPH generating system by HPLC-UV-MS analysis; format: ADME
structure (smiles),measurement,setting,value
C=C(c1ccc2c(c1)c1cc(F)ccc1n2C)c1cn(C)c(=O)n(C)c1=O,pIC50,HCT-116 [1],6.52
C=C(c1ccc2c(c1)c1ccccc1n2C)c1nc(C)nc2ccccc12,pIC50,[2],5.68
same,pIC50,HCT-116 [1],7.40
C=C(c1cc(C)nc(C)c1)c1ccc2c(ccn2C)c1,pIC50,[2],5.43
same,solubility at 4 h,[3],0.54 µg/mL
same,logP at 24 h,[4],5.2
same,pIC50,K562,8.74
same,Drug metabolism,Cytochrome P450 [5],Metabolite_Detected
same,pIC50,A549 [6],7.21
same,pIC50,K-562R [7],9.08
same,Drug metabolism,[8],Metabolite_Detected
same,pIC50,HUVEC [9],9.05
same,pIC50,HCT-116 [1],8.42
same,pIC50,U-87 MG,7.50
same,Drug metabolism,Cytochrome P450 [10],Metabolite_Detected
same,Drug metabolism,[11],Metabolite_Detected
COc1ccc(/C=C\c2cc(OC)c(OC)c(OC)c2)cc1O [COMBRETASTATIN A4],pIC50,[2],5.66
same,pIC50,K562,8.30
same,pIC50,HT-29,< 5.10
same,pIC50,A549 [6],6.70
same,Drug metabolism,[12],Metabolite_Detected
same,Drug metabolism,Cytochrome P450 [13],Metabolite_Detected
same,pIC50,HUVEC [9],8.77
same,pIC50,HCT-116 [1],8.66
same,pIC50,U-87 MG,8.40
same,Drug metabolism,Cytochrome P450 [14],Metabolite_Detected
same,Drug metabolism,[15],Metabolite_Detected
C=C(C1=CC(=O)C(OC)=CC1=O)c1cc(OC)c(OC)c(OC)c1,Drug metabolism,Cytochrome P450 [16],Metabolite_Detected
same,Drug metabolism,[17],Metabolite_Detected
C=C(c1ccc2c(c1)c1ccccc1n2C)c1cc(C)nc2ccccc12,pIC50,[2],5.70
same,Drug metabolism,[18],Metabolite_Detected
same,Drug metabolism,Cytochrome P450 [19],Metabolite_Detected
same,Stability,[20],Stable
same,Ratio IC50,K-562R [21],27
same,solubility at 4 h,[3],0.42 µg/mL
same,Activity,HUVEC [22],Dose-dependent effect
same,logP at 24 h,[4],5.29
same,pIC50,K562,8.70
same,Activity,HUVEC [23],Active
same,pIC50,HT-29,8.52
same,Drug metabolism,Cytochrome P450 [5],Metabolite_Detected
same,pIC50,A549 [6],8.52
same,pIC50,K-562R [7],9.05
same,Drug metabolism,[8],Metabolite_Detected
same,Stability,[24],Stable
same,Ratio IC50,K-562R [25],3
same,Activity,HUVEC [26],Active
same,Activity,HCT-116 [27],Dose-dependent effect
same,pIC50,HUVEC [9],9.09
same,pIC50,HCT-116 [1],8.70
same,Activity,HCT-116 [28],>90%
same,pIC50,U-87 MG,8.72
same,Drug metabolism,Cytochrome P450 [10],Metabolite_Detected
same,Drug metabolism,[11],Metabolite_Detected
same,Ratio IC50,A549 [29],67
C=C(c1cc(OC)c(OC)c(OC)c1)c1ccc2c(c1)c1ccccc1n2C,pIC50,[2],5.52
same,pIC50,HCT-116 [1],7.82
C=C(c1ccnc(C)c1)c1ccc2c(c1)c1ccccc1n2C,pIC50,[2],5.21
same,pIC50,HCT-116 [1],7.72
C=C(c1ccc2c(ccn2C)c1)c1cc(C#N)nc2ccccc12,solubility at 4 h,[3],3.11 µg/mL
same,logP at 24 h,[4],2.37
same,Drug metabolism,Cytochrome P450 [5],Metabolite_Detected
same,Drug metabolism,[8],Metabolite_Detected
same,Drug metabolism,Cytochrome P450 [10],Metabolite_Detected
same,Drug metabolism,[11],Metabolite_Detected
C=C(c1ccc2c(c1)c1ccccc1n2C)c1cn(C)c(=O)n(C)c1=O,pIC50,HCT-116 [1],6.71
C=C(c1ccc(OC)c(O)c1)c1cc(OC)c(OC)c(OC)c1,pIC50,[2],5.68
same,solubility at 4 h,[3],11.6 µg/mL
same,logP,[4]; 24 h,3.25
same,Drug metabolism,Cytochrome P450 [30],Metabolite_Detected
same,pIC50,K562,8.70
same,pIC50,HT-29,6.58
same,Drug metabolism,Cytochrome P450 [5],Metabolite_Detected
same,pIC50,A549 [6],8.10
same,pIC50,K-562R [7],8.52
same,Drug metabolism,[8],Metabolite_Detected
same,pIC50,HUVEC [9],8.70
same,Drug metabolism,[31],Metabolite_Detected
same,pIC50,U-87 MG,8.09
same,Drug metabolism,Cytochrome P450 [10],Metabolite_Detected
same,Drug metabolism,Cytochrome P450 [32],Metabolite_Detected
same,Drug metabolism,[11],Metabolite_Detected
same,Drug metabolism,[33],Metabolite_Detected
C=C(c1ccc(OC)c(O)c1)c1cc(OC)c(O)c(OC)c1,Drug metabolism,Cytochrome P450 [16],Metabolite_Detected
same,Drug metabolism,[17],Metabolite_Detected
C=C(c1ccc(OC)c(O)c1)c1cc(OC)c(OC)c(OC)c1O,Drug metabolism,Cytochrome P450 [16],Metabolite_Detected
same,Drug metabolism,[17],Metabolite_Detected
C=C(c1ccc2[nH]c3ccccc3c2c1)c1cc(C)nc2ccccc12,Drug metabolism,[34],Metabolite_Detected
same,Drug metabolism,Cytochrome P450 [35],Metabolite_Detected
C=C(c1ccc2c(c1)c1ccccc1n2C)c1cc(C#N)nc2ccccc12,pIC50,[2],5.44
same,pIC50,HCT-116 [1],7.92
